Measurements reported in patent publication US8778400B2, “Nanoparticle-stabilized capsule formulation for treatment of inflammation” (University of South Australia, priority 2008, dated 2014).
Converted amounts (≈) assume the structure as drawn.

Experiments:
[1] = In vitro dissolution of indomethacin under sink conditions (USP paddle); format: physicochemical; details: 25 mg indomethacin, phosphate buffer pH 7.2, sink conditions
Experimental: DSC was performed using TA Instruments Q100 differential scanning calorimeter. A 15 mg sample was heated in an aluminium pan at a rate of […] over a temperature range of 25-200° C., under a flow of dry nitrogen gas (80 ml/min). Instrument calibration was undertaken using an indium standard. Powder XRD patterns were obtained using Philips (PW 1050/25) X-ray diffractometer with CoKα radiation (45 kV, 35 mA). The samples were scanned between 10-50° (2θ) at a rate of 1.0°/min. […] The HPLC system (Hewlett Packard 1100) consisted of a series […] auto sampler and G1314A variable UV detector (Shimadzu Corporation). Separation was achieved using a LiChrospher 100 RP-18 analytical column (5 μm, 100 mm×4.6 mm i.d.). […] All chromatographic separations were performed at room temperature at a flow rate of 1 mL/min. The column eluent was monitored at a wavelength of 320 nm. […] The dissolution tests under sink conditions were performed using a USP paddle system (Vankel) and kept at a controlled 37° C. […] The paddle was rotated at 50 rpm. Samples (5 mL) were taken every 15 minutes for 3 h. […] The samples were measured using HPLC. […] With the conventional assumption that the rate and extent of drug dissolution directly reflects the concentration of readily absorbable drug in the intestinal lumen, it is proposed that capsules have the potential to enhance the oral absorption process. […]

[2] = Equilibrium solubility of celecoxib in phosphate buffer containing SLS; format: physicochemical; details: for folds of saturation volume (FSV): 900 ml media for 2 mg celecoxib; for solubility thermodynamic at 48 h: phosphate buffer, 37 °C, thermodynamic from solid
Experimental: The mixture was shaken in a thermostated mixer chamber (37° C.) for 48 h. Equilibrated samples were centrifuged at 9,400 g for 15 min to remove undissolved materials. The amount of celecoxib dissolved was assayed using the HPLC method outlined above.

[3] = Distribution ratio of celecoxib in Miglyol oil and phosphate buffer; format: physicochemical; details: Miglyol oil and blank phosphate buffer
[4] = Solubility of celecoxib in Miglyol oil; format: physicochemical; details: oil or lipid
prostaglandin E2 = details: reported for humans, based on inhibitory effect on prostaglandin E2; cited from earlier work
[5] = cited from earlier work
[6] = after oral delivery; cited from earlier work
[7] = In vitro dissolution study of celecoxib formulations (USP type II paddle); format: physicochemical; details: phosphate buffer, 0.5% SLS, 37° C.
Experimental: The in vitro dissolution study was performed in 900 ml of phosphate buffer (0.05 M, pH 7.2) containing 0, 0.05, and 0.5% (w/v) SLS, using USP 23 type II apparatus (paddle method) operating at 75±0.02 rpm. Each sample, containing ˜2 mg of celecoxib (equivalent to the amount used in the in vivo studies), was added into the dissolution medium maintained at 37±0.5° C. Aliquots of 3 ml were drawn at fixed time points and replaced with an equal volume of fresh dissolution medium. The drawn samples were centrifuged at 9,400 g for 15 min to remove undissolved materials. The supernatant was subjected to another cycle of centrifugation under the same conditions. An aliquot of 100 μl was taken from the middle portion of each centrifuged samples before diluted 2-fold with acetonitrile. […] The amount of celecoxib dissolved in the dissolution media was analysed by HPLC as described previously.
SLS was employed as a wetting and solubilising agent in the dissolution medium for simulating the sink effect in the gastrointestinal tract. The dissolution profiles of celecoxib from various formulations are illustrated in FIG. 3. […] The influence of silica nanoparticle layers of different hydrophobicity in controlling drug release from homogenised liquid emulsions has been previously investigated (Simovic et al., 2007). Here, the dissolution profiles of celecoxib from spray-dried capsules formulated with hydrophilic silica were obtained. Two dissolution parameters were evaluated from the study employing sink conditions: the dissolution efficiency (% DE), and the time to achieve 50% of drug dissolution (t50%) (Table 2). % DE is the area under the dissolution curve between two specified time points expressed as a percentage of the area of the rectangle described by 100% dissolution in the same time intervals, which can be calculated using Eq. (II): […]

SMILES	t50% (time taken to achieve 50% of drug dissolution) [1] [min]	folds of saturation volume (FSV) ([2]; 0% SLS)	folds of saturation volume (FSV) ([2]; 0.05% SLS)	folds of saturation volume (FSV) ([2]; 0.25% SLS)	folds of saturation volume (FSV) ([2]; 0.5% SLS)	folds of saturation volume (FSV) ([2]; 1.0% SLS)	solubility thermodynamic at 48 h ([2]; pH 7.2, aqueous buffer, phosphate buffer pH 7.2, 0% SLS) [µg/mL]	solubility thermodynamic at 48 h ([2]; pH 7.2, aqueous with cosolvent or surfactant or cyclodextrin, 0.05% SLS) [µg/mL]	solubility thermodynamic at 48 h ([2]; pH 7.2, aqueous with cosolvent or surfactant or cyclodextrin, 0.25% SLS) [µg/mL]	solubility thermodynamic at 48 h ([2]; pH 7.2, aqueous with cosolvent or surfactant or cyclodextrin, 0.5% SLS) [µg/mL]	solubility thermodynamic at 48 h ([2]; pH 7.2, aqueous with cosolvent or surfactant or cyclodextrin, 1.0% SLS) [µg/mL]	distribution ratio (log D) [3]	solubility [4] [µg/mL]	minimum effective pain-relieving plasma concentration (prostaglandin E2) [ng/mL]	log P [5]	Tmax [6]	t50% (time to achieve 50% of drug dissolution) [7] [min]	Dissolution efficiency (% DE) ([7]; t = 5 min) [%]	Dissolution efficiency (% DE) ([7]; t = 15 min) [%]	Dissolution efficiency (% DE) ([7]; t = 180 min) [%]
COc1ccc2c(c1)c(CC(=O)O)c(C)n2C(=O)c1ccc(Cl)cc1 [Indomethacin, 1-(4-chlorobenzoyl)-5-methoxy-2-methyl-1-H-indole-3-acetic acid]	58.8 ± 0.5																			
Cc1ccc(-c2cc(C(F)(F)F)nn2-c2ccc(S(N)(=O)=O)cc2)cc1 [celecoxib, 4-[5-(4-methylphenyl)-3-(trifluoromethyl)pyrazol-1-yl]benzenesulfonamide]		0.9	1.0	1.4	3.6	53.6	2.11 ± 0.01 (≈ 5.53 µM)	2.33 ± 0.15 (≈ 6.11 µM)	3.2 ± 0.16 (≈ 8.39 µM)	8 ± 0.39 (≈ 21 µM)	119 ± 29 (≈ 312 µM)	3.7	~10000 (≈ 26200 µM)	~155	≈ 3.5	approximately three	144.8	8.9 ± 1	24.3 ± 5	48.9 ± 3
